Source: US9365522B2, “Pyrazole amide derivative” (AMGEN INC., priority 2015, dated 2016)

What follows are molecules tested against T1, ligand binding domain of human ROR gamma (Homo sapiens, UniProt P51449) (assay: ROR gamma reporter gene assay (GAL4-RORγ LBD luciferase, Dual-Glo)). Conditions: HEK293T cells transfected with pM-ROR gamma, 8 concentrations 3.5 nM to 10.5 μM, 24 h incubation.
T1 construct: NM_001001523; expressed in transfected cells; host or cells: HEK293T
T1 sequence (P51449 247-497 isoform P51449-2): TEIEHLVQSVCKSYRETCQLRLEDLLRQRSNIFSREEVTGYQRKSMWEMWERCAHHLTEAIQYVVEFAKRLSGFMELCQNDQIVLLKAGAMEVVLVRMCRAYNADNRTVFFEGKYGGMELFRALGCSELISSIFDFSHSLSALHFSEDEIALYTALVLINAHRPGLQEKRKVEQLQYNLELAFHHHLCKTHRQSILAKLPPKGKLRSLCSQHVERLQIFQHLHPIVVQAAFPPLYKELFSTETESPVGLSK
Format: cell-based
Procedure: Luciferase reporter gene assay was used to assess inhibition of RORγ transcriptional activity.
ROR gamma expression vector was prepared by inserting the ligand binding domain of human ROR gamma (amino acid 247-497 of Genbank Accession NO. NM_001001523) adjacent to the yeast GAL4 transcription factor DNA binding domain in the expression vector pM (Clontech). The resulting expression vector pM-ROR gamma was used in transfection experiments together with the pGL4 luciferase reporter plasmid (Promega) containing five copies of the UAS GAL4 recognition site and pRL-CMV plasmids (Promega) containing the constitutive CMV promoter and the renilla luciferase.
For preparing transfection reagent/DNA mixture, 1 μg pM-ROR gamma, 1 μg pGL4 5×UAS, 625 pg pRL-CMV and 6.25 μL FuGENE™ HD transfection reagent (Promega) were mixed in 0.25 mL OPTI-MEM™ (Life technologies) at room temperature. At the same time, Negative control DNA mixture was prepared by using 1 μg pM empty vector instead of pM-ROR gamma plasmid. After a fifteen minute incubation, 0.25 mL of transfection reagent/DNA mixture was added to 1,000,000 of HEK293T cells (ATCC) in 5 mL of OPTI-MEM™ containing 10% Charcoal Stripped Fetal Bovine Serum.
Transfected cells were seeded onto 384 well plate (10 μL/well) and the 7.5 nL of test compounds were added to the wells in 8 concentrations ranging from 3.5 nM to 10.5 μM. The compounds were dissolved in 100% DMSO and the final concentration of DMSO in the assay was 0.075%.
After 24 h of incubation at 37° C., 5% CO2 in a cell culture incubator, the Dual-Glo™ Luciferase Assay System was used to detect activity according to the manufacturer's instructions (Promega, Cat. No.: E2920).
Data was plotted and pIC50 values were calculated using the XLfit program (ID Business Solutions Ltd.).
For `CC1(C)CC[C@@H](CN(CC(=O)c2c(Cl)cncc2Cl)C(=O)c2cnn([C@H]3CC[C@H](C(=O)O)CC3)c2C(F)(F)F)O1` (relative stereo) [Example 14, trans-4-(4-((2-(3,5-dichloropyridin-4-yl)-2-oxoethyl)(((S)-5,5-dimethylTHF-2-yl)methyl)carbamoyl)-5-(trifluoromethyl)-1H-pyrazol-1-yl)cyclohexanecarboxylic acid], the “result (pIC50, inhibition of RORγ transcriptional activity)” value was 7.12.

Same assay, conditions: HEK293T cells transfected with pM-ROR gamma, 8 concentrations 3.5 nM to 10.5 μM, 24 h incubation; read-out: result (pIC50, inhibition of RORγ transcriptional activity) (converted)
Molecule `CC1(C)CCC(N(CC(O)c2c(Cl)cc(F)cc2Cl)C(=O)c2cnn([C@H]3CC[C@](C)(C(=O)O)CC3)c2C(F)(F)F)CC1` (single isomer, unassigned) [Example 361, trans-4-(4-(((2R)-2-(2,6-dichloro-4-fluorophenyl)-2-hydroxyethyl)-(4,4-dimethylcyclohexyl)carbamoyl)-5-(trifluoromethyl)pyrazol-1-yl)-1-methylcyclohexane-1-carboxylic acid or trans-4-(4-(((2S)-2-(2,6-dichloro-4-fluorophenyl)-2-hydroxyethyl)-(4,4-dimethylcyclohexyl)carbamoyl)-5-(trifluoromethyl)pyrazol-1-yl)-1-methylcyclohexane-1-carboxylic acid] has an IC50 of 1.2e+06 pM.
`CC1(C)CCC(N(CC(O)c2c(Cl)cc(F)cc2Cl)C(=O)c2cnn([C@H]3CC[C@](C)(C(=O)O)CC3)c2C(F)(F)F)CC1` (single isomer, unassigned) [Example 362, trans-4-(4-(((2R)-2-(2,6-dichloro-4-fluorophenyl)-2-hydroxyethyl)-(4,4-dimethylcyclohexyl)carbamoyl)-5-(trifluoromethyl)pyrazol-1-yl)-1-methylcyclohexane-1-carboxylic acid or trans-4-(4-(((2S)-2-(2,6-dichloro-4-fluorophenyl)-2-hydroxyethyl)-(4,4-dimethylcyclohexyl)carbamoyl)-5-(trifluoromethyl)pyrazol-1-yl)-1-methylcyclohexane-1-carboxylic acid] was tested, and the IC50 was 57500 pM.
`O=C(CN(Cc1ccc(F)cc1)C(=O)c1cnn([C@H]2CCC(C(=O)O)C2)c1C(F)(F)F)c1c(Cl)cncc1Cl` (stereo in doubt) [Example 93, (1S,3S)-3-(4-((2-(3,5-dichloropyridin-4-yl)-2-oxoethyl)-((4-fluorophenyl)methyl)carbamoyl)-5-(trifluoromethyl)pyrazol-1-yl)cyclopentane-1-carboxylic acid] gave an IC50 of 575000 pM.
In the case of `CC(C)(C)CN(C[C@H](O)c1ncccc1Cl)C(=O)c1cnn([C@H]2CC[C@](C)(C(=O)O)CC2)c1C(F)(F)F` (stereo in doubt) [Example 402, trans-4-(4-((2-(3-chloropyridin-2-yl)-2-hydroxyethyl)-(2,2-dimethylpropyl)carbamoyl)-5-(trifluoromethyl)pyrazol-1-yl)-1-methylcyclohexane-1-carboxylic acid], the IC50 was no less than 1.05e+07 pM.
`CC(C)(C)CN(C[C@@H](O)c1ncccc1Cl)C(=O)c1cnn([C@H]2CC[C@](C)(C(=O)O)CC2)c1C(F)(F)F` (stereo in doubt) [Example 403, trans-4-(4-((2-(3-chloropyridin-2-yl)-2-hydroxyethyl)-(2,2-dimethylpropyl)carbamoyl)-5-(trifluoromethyl)pyrazol-1-yl)-1-methylcyclohexane-1-carboxylic acid] gave an IC50 of 1.74e+06 pM.
With `O=C(CN(Cc1ccc(F)cc1)C(=O)c1cnn([C@H]2CC[C@H](C(=O)O)CC2)c1C(F)(F)F)c1c(Cl)cncc1Cl` [Example 1, trans-4-(4-((2-(3,5-dichloropyridin-4-yl)-2-oxoethyl)(4-fluorobenzyl)carbamoyl)-5-(trifluoromethyl)-1H-pyrazol-1-yl)cyclohexanecarboxylic acid] the IC50 was 24000 pM.
Molecule `C[C@]1(C(=O)O)CC[C@H](n2ncc(C(=O)N(CC(=O)c3c(Cl)cc(F)cc3Cl)Cc3cc(F)cc(F)c3)c2C(F)(F)F)CC1` [Example 2, trans-4-(4-((2-(2,6-dichloro-4-fluorophenyl)-2-oxoethyl)(3,5-difluorobenzyl)carbamoyl)-5-(trifluoromethyl)-1H-pyrazol-1-yl)-1-methylcyclohexanecarboxylic acid] has an IC50 of 7590 pM.
Molecule `Cc1csc(C)c1C(=O)CN(Cc1cc(F)cc(F)c1)C(=O)c1cnn([C@H]2CC[C@H](C(=O)O)CC2)c1C(F)(F)F` [Example 3, trans-4-(4-((3,5-difluorobenzyl)(2-(2,4-dimethylthiophen-3-yl)-2-oxoethyl)carbamoyl)-5-(trifluoromethyl)-1H-pyrazol-1-yl)cyclohexanecarboxylic acid] has an IC50 greater than 1e+07 pM.
In the case of `CS(=O)(=O)c1cc(Cl)c(C(=O)CN(Cc2cc(F)cc(F)c2)C(=O)c2cnn([C@H]3CC[C@H](C(=O)O)CC3)c2C(F)(F)F)c(Cl)c1` [Example 4, trans-4-(4-((2-(2,6-dichloro-4-(methylsulfonyl)phenyl)-2-oxoethyl)(3,5-difluorobenzyl)carbamoyl)-5-(trifluoromethyl)-1H-pyrazol-1-yl)cyclohexanecarboxylic acid], the IC50 was 380000 pM.
Work on `O=C(CN(Cc1cc(F)cc(F)c1)C(=O)c1cnn([C@H]2CC[C@H](C(=O)NO)CC2)c1C(F)(F)F)c1c(Cl)cncc1Cl` [Example 5, N-(2-(3,5-dichloropyridin-4-yl)-2-oxoethyl)-N-(3,5-difluorobenzyl)-1-(trans-4-(hydroxycarbamoyl)cyclohexyl)-5-(trifluoromethyl)-1H-pyrazole-4-carboxamide] yielded an IC50 of 209000 pM.
For `CONC(=O)[C@H]1CC[C@H](n2ncc(C(=O)N(CC(=O)c3c(Cl)cncc3Cl)Cc3cc(F)cc(F)c3)c2C(F)(F)F)CC1` [Example 6, N-(2-(3,5-dichloropyridin-4-yl)-2-oxoethyl)-N-(3,5-difluorobenzyl)-1-(trans-4-(methoxycarbamoyl)cyclohexyl)-5-(trifluoromethyl)-1H-pyrazole-4-carboxamide], the IC50 was 87100 pM.
Work on `COc1cccc(O)c1C(=O)CN(Cc1cc(F)cc(F)c1)C(=O)c1cnn([C@H]2CC[C@H](C(=O)O)CC2)c1C(F)(F)F` [Example 7, trans-4-(4-((3,5-difluorobenzyl)(2-(2-hydroxy-6-methoxyphenyl)-2-oxoethyl)carbamoyl)-5-(trifluoromethyl)-1H-pyrazol-1-yl)cyclohexanecarboxylic acid] yielded an IC50 of 4.57e+06 pM.
`O=C(CN(Cc1cc(F)cc(F)c1)C(=O)c1cnn([C@H]2CC[C@H](C(=O)O)CC2)c1C(F)(F)F)c1cc[nH]n1` [Example 8, trans-4-(4-((3,5-difluorobenzyl)(2-oxo-2-(1H-pyrazol-3-yl)ethyl)carbamoyl)-5-(trifluoromethyl)-1H-pyrazol-1-yl)cyclohexanecarboxylic acid] gave an IC50 greater than 1e+07 pM.
Work on `O=C(CN(Cc1cc(F)cc(F)c1)C(=O)c1cnn(C2CCC(C(=O)O)CC2)c1C(F)(F)F)c1c(O)cccc1O` (stereo not shown) [Example 9, 4-(4-((3,5-difluorobenzyl)(2-(2,6-dihydroxyphenyl)-2-oxoethyl)carbamoyl)-5-(trifluoromethyl)-1H-pyrazol-1-yl)cyclohexanecarboxylic acid] yielded an IC50 greater than 1e+07 pM.
`O=C(c1cnn([C@H]2CC[C@H](C(=O)O)CC2)c1C(F)(F)F)N(Cc1cc(F)cc(F)c1)CC(F)(F)c1c(Cl)cncc1Cl` [Example 10, trans-4-(4-((2-(3,5-dichloropyridin-4-yl)-2,2-difluoroethyl)(3,5-difluorobenzyl)carbamoyl)-5-(trifluoromethyl)-1H-pyrazol-1-yl)cyclohexanecarboxylic acid] showed an IC50 of 25700 pM.
